From ChEMBL document CHEMBL5096234, “Discovery, Optimization, and Evaluation of Selective CDK4/6 Inhibitors for the Treatment of Breast Cancer” (J Med Chem, 2022)
Activity calls are given as the source filed them. The calls are words filed in the database; no cut-off is given here.

Tests used:
MCF7 [1] = assay: Induction of cell cycle arrest in human MCF7 cells assessed as accumulation of cells at G2 phase at 1.5 uM incubated for 24 hrs by propidium iodide staining based flow cytometry analysis (reference value: 29.66%); assay type: functional
[2] = Acute toxicity in ICR mouse assessed as heart kidney at 5000 mg/kg, po administered as single dose and measured every 2 days for 14 days by H and E staining based analysis; assay type: organism-based; settings: in vivo, 336 h, time 14 day
ZR-75-1 = assay: Antiproliferative activity against human ZR-75-1 cells assessed as cell growth inhibition incubated for 72 hrs by CCK-8 assay; assay type: functional
[3] = Acute toxicity in ICR mouse assessed as lung lesions at 5000 mg/kg, po administered as single dose and measured every 2 days for 14 days by H and E staining based analysis; assay type: organism-based; settings: in vivo, 336 h, time 14 day
[4] = target: T1, Retinoblastoma-associated protein (Homo sapiens) (UniProt P06400); assay: Inhibition of RB phosphorylation in human MCF7 cells at 1.5 to 5 uM incubated for 24 hrs by Western blot analysis; assay type: cell-based; settings: dose 1.5-5 µM
T1 sequence (whole entry): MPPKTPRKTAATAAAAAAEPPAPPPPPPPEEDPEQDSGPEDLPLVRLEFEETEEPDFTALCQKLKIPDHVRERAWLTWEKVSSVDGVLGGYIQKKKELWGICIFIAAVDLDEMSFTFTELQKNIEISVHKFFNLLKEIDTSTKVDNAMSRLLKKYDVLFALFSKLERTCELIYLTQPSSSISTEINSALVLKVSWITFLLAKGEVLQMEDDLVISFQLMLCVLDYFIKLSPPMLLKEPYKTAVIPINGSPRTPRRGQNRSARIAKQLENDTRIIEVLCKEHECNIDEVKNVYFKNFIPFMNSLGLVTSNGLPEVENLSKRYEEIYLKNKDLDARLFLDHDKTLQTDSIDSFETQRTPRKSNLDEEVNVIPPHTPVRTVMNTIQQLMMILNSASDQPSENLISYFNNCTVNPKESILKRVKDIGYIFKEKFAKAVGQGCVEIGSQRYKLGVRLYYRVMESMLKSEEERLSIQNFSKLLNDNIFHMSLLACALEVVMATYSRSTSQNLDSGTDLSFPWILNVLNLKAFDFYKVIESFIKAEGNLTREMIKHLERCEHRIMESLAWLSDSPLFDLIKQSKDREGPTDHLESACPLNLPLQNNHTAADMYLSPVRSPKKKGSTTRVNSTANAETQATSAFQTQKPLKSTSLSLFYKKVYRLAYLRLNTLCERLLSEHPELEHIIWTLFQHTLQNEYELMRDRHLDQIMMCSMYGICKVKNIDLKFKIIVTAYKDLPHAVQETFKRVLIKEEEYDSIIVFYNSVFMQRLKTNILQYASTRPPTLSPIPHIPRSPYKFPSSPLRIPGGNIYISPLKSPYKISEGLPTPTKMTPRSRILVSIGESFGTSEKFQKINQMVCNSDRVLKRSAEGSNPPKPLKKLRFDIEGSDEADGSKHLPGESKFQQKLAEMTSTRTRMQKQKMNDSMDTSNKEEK

MCF7 [5] = assay: Antitumor activity against human MCF7 cells xenografted in BALB/c mouse assessed as inhibition of tumor growth at 150 mg/kg, po administered once daily and measured every 2 days for 23 days; assay type: functional, organism-based; settings: time 23.0 day
MCF7 [6] = assay: Induction of cell cycle arrest in human MCF7 cells assessed as accumulation of cells at G1 phase at 1.5 uM incubated for 24 hrs by propidium iodide staining based flow cytometry analysis (reference value: 57.38%); assay type: functional
[7] = Acute toxicity in ICR mouse assessed as liver lesions at 5000 mg/kg, po administered as single dose and measured every 2 days for 14 days by H and E staining based analysis; assay type: organism-based; settings: in vivo, 336 h, time 14 day
[8] = Oral bioavailability in Sprague-Dawley rat 10 mg/kg by LC/MS/MS analysis; assay type: ADME, organism-based; settings: in vivo
[9] = Cmax in Sprague-Dawley rat 1 mg/kg, iv by LC/MS/MS analysis; assay type: ADME, organism-based; set-up: dose 1 mg/kg, route iv; settings: in vivo
CDK2/Cyclin A2 = CDK2/Cyclin A2 (Homo sapiens, UniProt P24941); assay: Inhibition of CDK2/Cyclin A (unknown origin) in presence of ATP by time resolved-FRET assay; assay type: protein-complex assay
T47D [10] = assay: Downregulation c-MYC level in human T47D cells incubated for 24 hrs by Western blot analysis; assay type: functional, cell-based; settings: dose 1-4 µM, DDE = dose-dependent effect
MCF7 [11] = assay: Induction of cell cycle arrest in human MCF7 cells assessed as accumulation of cells at G2 phase at 6 uM incubated for 24 hrs by propidium iodide staining based flow cytometry analysis (reference value: 29.66%); assay type: functional
MCF7 [12] = assay: Induction of cell cycle arrest in human MCF7 cells assessed as accumulation of cells at G2 phase at 3 uM incubated for 24 hrs by propidium iodide staining based flow cytometry analysis (reference value: 29.66%); assay type: functional
T47D [13] = assay: Induction of cell cycle arrest in human T47D cells assessed as accumulation of cells at G2 phase at 1 uM incubated for 24 hrs by propidium iodide staining based flow cytometry analysis (reference value: 16.57%); assay type: functional
[14] = Toxicity in BALB/c mouse xenografted with human MCF7 cells assessed as increase in body weight at 100 to 150 mg/kg, po administered once daily and measured every 2 days for 23 days; assay type: organism-based; settings: in vivo, 552 h, dose 100-150 mg/kg, time 23 day
[15] = Acute toxicity in ICR mouse assessed as change in lung weight at 1000 to 5000 mg/kg, po administered as single dose and measured every 2 days for 14 days; assay type: organism-based; settings: in vivo, 336 h, dose 1000-5000 mg/kg, time 14 day
MCF7 [16] = assay: Downregulation c-MYC level in human MCF7 cells incubated for 24 hrs by Western blot analysis; assay type: functional, cell-based; settings: dose 1.5-5 µM, DDE = dose-dependent effect
[17] = Acute toxicity in ICR mouse assessed as change in heart weight at 1000 to 5000 mg/kg, po administered as single dose and measured every 2 days for 14 days; assay type: organism-based; settings: in vivo, 336 h, dose 1000-5000 mg/kg, time 14 day
MCF7 [18] = assay: Inhibition of clone formation in human MCF7 cells at 0.75 to 6 uM by crystal voilet staining based analysis; assay type: functional, cell-based; settings: dose 0.75-6 µM, time 2.0 weeks
[19] = MRT (0 to infinity) in Sprague-Dawley rat 1 mg/kg, iv by LC/MS/MS analysis; assay type: ADME, organism-based; settings: in vivo
[20] = Acute toxicity in ICR mouse assessed as heart lesions at 5000 mg/kg, po administered as single dose and measured every 2 days for 14 days by H and E staining based analysis; assay type: organism-based; settings: in vivo, 336 h, time 14 day
[21] = Tmax in Sprague-Dawley rat 10 mg/kg, po by LC/MS/MS analysis; assay type: ADME, organism-based; settings: in vivo
[22] = MRT (0 to infinity) in Sprague-Dawley rat 10 mg/kg, po by LC/MS/MS analysis; assay type: ADME, organism-based; settings: in vivo
T47D [23] = assay: Induction of cell cycle arrest in human T47D cells assessed as accumulation of cells at G1 phase at 4 uM incubated for 24 hrs by propidium iodide staining based flow cytometry analysis (reference value: 69.55 %); assay type: functional
CDK6/cyclin D1 = CDK6/cyclin D1 (Homo sapiens, UniProt Q00534); assay: Inhibition of CDK6/cyclin-D1 (unknown origin) in presence of ATP by time resolved-FRET assay; assay type: protein-complex assay
Sequence of CDK6/cyclin D1 (P24385 whole entry): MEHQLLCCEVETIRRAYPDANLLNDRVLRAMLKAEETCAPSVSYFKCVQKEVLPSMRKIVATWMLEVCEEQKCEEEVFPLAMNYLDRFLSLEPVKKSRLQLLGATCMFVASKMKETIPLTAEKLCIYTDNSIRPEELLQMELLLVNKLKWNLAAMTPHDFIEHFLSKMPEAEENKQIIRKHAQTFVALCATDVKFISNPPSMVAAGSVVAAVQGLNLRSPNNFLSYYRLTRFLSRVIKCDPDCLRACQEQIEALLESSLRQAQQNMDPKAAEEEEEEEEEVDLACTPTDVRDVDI
Sequence of CDK6/cyclin D1 (Q00534 whole entry): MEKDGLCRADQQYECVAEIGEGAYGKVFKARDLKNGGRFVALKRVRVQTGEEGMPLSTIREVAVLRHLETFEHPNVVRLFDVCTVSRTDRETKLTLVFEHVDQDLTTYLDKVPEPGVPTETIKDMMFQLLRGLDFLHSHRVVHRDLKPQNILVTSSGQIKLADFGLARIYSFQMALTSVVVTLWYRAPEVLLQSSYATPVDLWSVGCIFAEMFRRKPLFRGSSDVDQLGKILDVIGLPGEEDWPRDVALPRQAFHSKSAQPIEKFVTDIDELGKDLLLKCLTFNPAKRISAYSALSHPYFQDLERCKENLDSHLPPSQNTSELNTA

CCN1CCc2cc(-c3nc(Nc4ccc(N5CCNCC5)cn4)ncc3F)ccc2C1=O
Activity (MCF7 [1]): 13.57%
Activity [2]: Non-Toxic
GI50 (ZR-75-1): 3200 nM
Activity [3]: Non-Toxic
inhibition [4]: Active
inhibition (MCF7 [5]): Active
Activity (MCF7 [6]): 79.52%
Activity [7]: Non-Toxic
bioavailability [8]: 43%
Cmax [9]: 291 ng/mL
IC50 (CDK2/Cyclin A2): 1050 nM
Activity (T47D [10]): Dde
Activity (MCF7 [11]): 10.67%
Activity (MCF7 [12]): 11.42%
Activity (T47D [13]): 7.59%
Activity [14]: Non-Toxic
Activity [15]: Non-Toxic
Activity (MCF7 [16]): Dde
Activity [17]: Non-Toxic
inhibition (MCF7 [18]): Active
MRT inf [19]: 3.5 h
Activity [20]: Non-Toxic
Tmax [21]: 6 h
MRT inf [22]: 9.11 h
Activity (T47D [23]): 87.12%
IC50 (CDK6/cyclin D1): 16 nM
